Data set [1] is described as follows: Selectivity ratio of IC50 for mouse BALB/3T3 cells to IC50 for human HCT116 cells. Format: cell-based, HCT-116. The settings on record: BALB/3T3 cells versus HCT116 cells, read-out: Ratio IC50.
Data set [2] has as its system MV4-11. The data set can be described thus: Antiproliferative activity against Homo sapiens (human) MV411 cells after 72 hr by MTT assay. Format: functional, cell-based. The note with it: MV4-11, 72 h. Background: Formazan colour is commonly taken as a measure of viable cells.
Data set [3] concerns BALB/3T3. The data set can be described thus: Cytotoxicity against Mus musculus (mouse) BALB/3T3 cells after 72 hr by SRB assay. The settings on record: BALB/3T3, 72 h. Format: cell-based. Background: The SRB assay estimates cell density from bound dye.
Data set [4] has as its system A549. The data set can be described thus: Antiproliferative activity against Homo sapiens (human) A549 cells after 72 hr by SRB assay. Format: functional, cell-based. The note with it: A549, 72 h.

Turning to `Cn1c2nc3ccc(Br)cc3c-2c(NCCCN)c2cc(Cl)ccc21`, the selectivity ratio in data set [1] came out at 4. In the case of `CN(C)CCCNc1c2c3cc(C(=O)O)ccc3nc-2n(C)c2ccccc12`, the IC50 (commonly the concentration that gives 50% inhibition) in data set [2] is greater than 25000 nM. `COC(=O)c1ccc2nc3n(C)c4ccc(Br)cc4c(NCCCN)c-3c2c1`: the selectivity ratio in data set [1] stood at 4. Besides, the IC50 in data set [3] worked out at 833 nM; in data set [2], 56 nM; in data set [4] it was 194 nM. In the case of `COC(=O)c1ccc2c(c1)c(NCCCN)c1c3cc(Br)ccc3nc-1n2C`, the selectivity ratio in data set [1] amounted to 4. `Cn1c2nc3ccccc3c-2c(NCCCO)c2ccccc21`: the IC50 in data set [2] was determined as 170 nM. For the molecule `COC(=O)c1ccc2nc3n(C)c4ccccc4c(NCCCN)c-3c2c1`, the selectivity ratio in data set [1] was determined as 4. On the same count and under the same terms, the figure for `COC(=O)c1ccc2nc3n(C)c4ccccc4c(N4CCOCC4)c-3c2c1` is 4; for `COC(=O)c1ccc2nc3n(C)c4ccccc4c(NCCCN(C)C)c-3c2c1` it is 4. Regarding `COC(=O)c1ccc2nc3n(C)c4ccccc4c(NCCN(C)C)c-3c2c1`, in data set [1], the selectivity ratio worked out at 4. For `COC(=O)c1ccc2c(c1)c(NCCCN)c1c3ccccc3nc-1n2C`, the selectivity ratio in data set [1] was 4.

Molecule `Cn1c2nc3ccc(C(=O)O)cc3c-2c(NCCCN)c2ccccc21` had an IC50 in data set [2] greater than 25000 nM.

For `CN(C)CCNc1c2c3cc(C(=O)O)ccc3nc-2n(C)c2ccccc12`, in data set [2], the IC50 came out at 9280 nM. As for `COC(=O)c1ccc2nc3n(C)c4ccccc4c(NCCCO)c-3c2c1`, the selectivity ratio in data set [1] came to 4. Turning to `Cn1c2nc3ccc(C(=O)O)cc3c-2c(NCCCO)c2ccccc21`, the 50% inhibitory concentration (IC50) in data set [2] is greater than 25000 nM. For `COC(=O)c1ccc2nc3n(C)c4ccc(C(=O)OC)cc4c(NCCCN)c-3c2c1`, the selectivity ratio in data set [1] was 28. In turn, `CN1CCCN(c2c3c4ccccc4nc-3n(C)c3ccccc23)CC1` returned an IC50 in data set [2] of 7170 nM.

In the case of `COC(=O)c1ccc2nc3n(C)c4ccccc4c(NCCCCN)c-3c2c1`, the selectivity ratio in data set [1] came to 4. `Cn1c2nc3ccccc3c-2c(NCCCCN)c2ccccc21`: in data set [2], the 50% inhibitory concentration (IC50) is 100 nM. Consider `COC(=O)c1ccc2nc3n(C)c4ccccc4c(N4CCCN(C)CC4)c-3c2c1`, for which the selectivity ratio in data set [1] came out at 4.

Values taken from ChEMBL document CHEMBL3046525, “In vitro antiproliferative activity of 11-aminoalkylamino-substituted 5H-indolo[2,3-b]quinolines; improving activity of neocryptolepines by installation of ester substituent” (Med Chem Res, 2013).
